The text below walks through data of patent US20210308286A1 (The Johns Hopkins University, priority 2018, published 2021).

In general, pKi refers to −log10 of the Ki, conventionally taken in molar units.

One series concerns PSMA+ PC3 PIP tumor. In words: In vivo PSMA inhibition with excess […], ex vivo tumor fluorescence. As to conditions: 15 nmol LC-Pyro intravenous, 24 hours post-injection. The arrangement: species or system athymic male nude mice.
Series [1] has as its system PSMA+ (PC3-ML-1124) and PSMA− (PC3-ML-1117) metastatic nodules. In words: Fluorescence detection of prostate metastasis. As to conditions: 20 nmol via tail vein, 24 hours post-injection. Type of series: in vivo, mice.
For series [2], the system named is PSMA+ PC3 PIP and PSMA− PC3 flu subcutaneous tumors. As to conditions: 20 nmol intravenous; for tumor accumulation, whole-animal in vivo fluorescence imaging: 24 hours post-administration; for ex vivo organ distribution / clearance route: 24 hours, ex vivo fluorescence.
Series [3] has as its target T1, PSMA (Homo sapiens, UniProt Q04609).
T1 construct: endogenous in cells; host or cells: LNCaP cell lysate
In words: Fluorescence-based PSMA inhibition assay (NAAG hydrolysis by LNCaP cell lysates, Amplex Red). It counts as biochemical. Particulars: 4 μM NAAG, Cheng-Prusoff conversion, n=3. The protocol:
Briefly, lysates of LNCaP cells (25 μL in 0.1 M Tris-HCl, pH 8.0) were incubated with the serial dilutions of the test compounds (in 12.5 μL of 0.1 M Tris-HCl, pH 8.0) in the presence of 4 μM N-acetylaspartylglutamate (NAAG) (in 12.5 μL of 0.1 M Tris-HCl, pH 8.0) for 120 minutes. The reaction mixtures were incubated with the working solution (50 μL) of the Amplex Red Glutamic Acid Kit (Molecular Probes Inc., Eugene, Oreg.) for 60 minutes. The amount of glutamate released from NAAG hydrolysis by the LNCaP lysates was determined by measuring the fluorescence generated from the reactions using the Cytation 5 plate reader (BioTek, Winooski, Vt.) with excitation at 545 nm and emission at 590 nm. […] Enzyme inhibitory constants (Ki values) were generated using the Cheng-Prusoff conversion. […] Data analysis was performed using GraphPad Prism software (n=3).
Target sequence in this assay (Q04609 whole entry): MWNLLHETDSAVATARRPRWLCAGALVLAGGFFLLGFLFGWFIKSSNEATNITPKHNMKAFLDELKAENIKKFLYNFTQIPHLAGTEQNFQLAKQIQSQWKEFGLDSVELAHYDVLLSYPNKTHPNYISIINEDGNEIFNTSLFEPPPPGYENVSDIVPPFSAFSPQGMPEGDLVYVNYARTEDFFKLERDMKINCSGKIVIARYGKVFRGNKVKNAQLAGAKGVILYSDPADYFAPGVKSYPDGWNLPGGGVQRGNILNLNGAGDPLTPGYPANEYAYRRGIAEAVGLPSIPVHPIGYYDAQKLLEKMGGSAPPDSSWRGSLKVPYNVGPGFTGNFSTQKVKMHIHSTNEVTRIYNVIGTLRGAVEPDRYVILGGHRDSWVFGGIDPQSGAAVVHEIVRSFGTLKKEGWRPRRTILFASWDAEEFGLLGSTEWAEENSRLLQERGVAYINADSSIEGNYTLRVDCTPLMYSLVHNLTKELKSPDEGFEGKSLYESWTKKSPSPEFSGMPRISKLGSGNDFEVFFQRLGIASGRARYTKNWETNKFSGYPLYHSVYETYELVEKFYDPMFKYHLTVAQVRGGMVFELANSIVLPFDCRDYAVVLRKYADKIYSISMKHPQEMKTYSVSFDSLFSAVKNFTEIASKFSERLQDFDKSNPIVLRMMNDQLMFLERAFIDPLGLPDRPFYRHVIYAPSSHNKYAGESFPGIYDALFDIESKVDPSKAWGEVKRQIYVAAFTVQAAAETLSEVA

The test system of series [4] is PSMA+ PC3 PIP subcutaneous tumor.
Series [5] has as its target T1, PSMA. Description: biochemical.
Target sequence in this assay (Q04609 whole entry, looked up): as the sequence (Q04609 whole entry) above
Series [6] concerns PSMA+ PC3 PIP orthotopic prostate tumor. Description: ^64Cu-LC-Pyro PET/CT and gamma-counting biodistribution, PSMA+ orthotopic model. Particulars: PSMA+ PC3 PIP orthotopic tumor mice, 24 hours post-injection, mean ± SD, n=4.
From the text: Organs of interest, including the tumor, prostate, seminal vesicles, testes, heart, spleen, lungs, liver, kidneys, adrenal, stomach, small intestine, large intestine, skin, fat, muscle, bone and brain were excised, washed in saline, dried with absorbent tissue, weighed, and counted on a gamma-counter Wizard® 1480 well-type automatic gamma counter (PerkinElmer Inc.; Shelton, Conn.). Radioactivity measured in each organ was decay-corrected and expressed as the percentage of the injected dose per gram of tissue (% ID/g).
Series [7] in a line: Plasma blood clearance (pharmacokinetics) after intravenous injection. Type of series: in vivo, BALB/c mice. As to conditions: for half-life: BALB/c, 20 nmol per animal, 20 nmol intravenous, plasma fluorescence over 48 hours, n=5.
The next series has as its system PSMA+ PC3 PIP cells. Type of series: cell-based. As to conditions: flow cytometry, time-dependent.
For series [8], the system named is low-risk, localized prostate cancer. Particulars: vascular targeted PDT, cited from earlier work.
The mark [9] stands for this setting: LC-Pyro+Laser group, 24 hours post-PDT.

pKi: −log10 of the molar value. Like-named read-outs stand apart in the source and are kept apart here. Non-standard residues stand in square brackets, D forms with d. Residues, ends and D or L forms follow the SMILES beside them. ξ: configuration not given here. *: point of attachment. X1 = C=Cc1c(C)c2cc3nc(c4c5[nH]c(cc6nc(cc1[nH]2)C(C)=C6CC)c(C)c5C(=O)C4)[C@@H](CCC(=O)*)[C@H]3C; X2 = O=C(O)CC[C@H](NC(=O)N[C@@H](CCCCNC(=O)CCCCCCC(=O)*)C(=O)O)C(=O)O; ξE = NC(CCC(=O)O)C(=O)O; ξD = NC(CC(=O)O)C(=O)O; ξK = NCCCCC(N)C(=O)O; ξV = CC(C)C(N)C(=O)O; ξS = NC(CO)C(=O)O

On to `C=Cc1c(C)c2cc3nc(c4c5[nH]c(cc6nc(cc1[nH]2)C(C)=C6CC)c(C)c5C(=O)C4)[C@@H](CCC(=O)NCC(=O)NC(CC(=O)O)C(=O)NC(CCC(=O)O)C(=O)NC(C(=O)NC(CC(=O)O)C(=O)NCC(=O)NC(CO)C(=O)NCC(=O)NC(CCCCNC(=O)CCCCCCC(=O)NCCCC[C@H](NC(=O)N[C@@H](CCC(=O)O)C(=O)O)C(=O)O)C(N)=O)C(C)C)[C@H]3C` (some centres unmarked) [LC-Pyro] (X1-G[ξD][ξE][ξV][ξD]G[ξS]G[ξK](X2)-NH2; N-terminus and C-terminus assumed), for which the “accumulation in excised PSMA+ PC3 PIP tumors with DCIBzL (PSMA blocker) injected 30 minutes beforehand” value with PSMA+ PC3 PIP tumor was “less accumulation”. Further, the “uptake in metastatic nodules, in situ fluorescence imaging” value in series [1] is given as “selective uptake”. Further, in [2], the “tumor accumulation, whole-animal in vivo fluorescence imaging” value was “selective accumulation to the PSMA+ after 24 hours”; the “ex vivo organ distribution / clearance route” value is “liver and kidney clearance”. At PSMA [3], the “Ki inhibitory activity against PSMA” value is “sub-nanomolar”. Besides, the “therapeutic effect without laser exposure” value in [4] (LC-Pyro only, 50 nmol intravenous) is reported as “No therapeutic effect”. For the same compound, the “skin phototoxicity upon daylight exposure” value in series [4] (LC-Pyro with no laser treatment, 50 nmol intravenous) is reported as “no sign of skin phototoxicity”. Further, the body weight result in series [4] (LC-Pyro+Laser group) is reported as “no decrease in body weight”. In addition, in series [4] (setting [9]), the “H&E staining of tumor sections” value was “significant damage of tissue architecture” and the “TUNEL staining of tumor sections” value is reported as “significant cell death”. Also, the “tumor regrowth after day 22” value in series [4] (LC-Pyro+Laser group, n=4) is recorded as “tumor regrowth was observed in two animals”. In series [4] (LC-Pyro+Laser group, the two remaining animals), the “residual or recurrent disease 44 days post-PDT” value is “no signs of residual or recurrent disease”. Also, the tumor growth result in [4] (LC-Pyro+Laser: 30 nmol intravenous, 671-nm laser 100 J/cm^2 at 6 hours, single dose, n=4) was “significant tumor growth inhibition”. This compound also gave a negative-log Ki (pKi) at PSMA [5] of 10.06. The “biodistribution, Tumor” value in series [6] came to 9.74 % ID/g. In series [7] (BALB/c mice, intravenous), the “plasma circulation time, fold longer than SC-Pyro (single lysine linker analog)” value is listed as 8.5 fold. Further, the half-life in series [7] (mouse, in vivo, iv, read-out: t1/2, fast (plasma, two-compartment model) (converted)) was 0.5 h. The half-life in series [7] (mouse, in vivo, iv, read-out: t1/2, slow (plasma half-life, two-compartment model) (converted)) is 10 h. Also, the “selectivity of uptake in PSMA+ PC3 PIP vs PSMA− PC3 flu cells” value in the series on PSMA+ PC3 PIP cells is on record as “nonselective cell-penetrating properties”.
On to `C=Cc1c(C)c2cc3nc(c4c5[nH]c(cc6nc(cc1[nH]2)C(C)=C6CC)c(C)c5C(=O)C4)[C@@H](CCC(=O)N[C@H](CCCCNC(=O)CCCCCCC(=O)NCCCC[C@H](NC(=O)N[C@@H](CCC(=O)O)C(=O)O)C(=O)O)C(N)=O)[C@@H]3C` [SC-Pyro], for which, in series [2], the “tumor accumulation, whole-animal in vivo fluorescence imaging” value was “negligible accumulation within both the PSMA− and PSMA+ tumors”; the “ex vivo organ distribution / clearance route” value is “metabolized and collected in the gallbladder”. Further, the “Ki inhibitory activity against PSMA” value on PSMA [3] is “sub-nanomolar”. Moreover, the “t1/2, slow (plasma half-life, two-compartment model)” value in series [7] (mouse, in vivo, iv) is 1.17 h.
Compound `C=Cc1c(C)c2cc3nc(c4c5[nH]c(cc6nc(cc1[nH]2)C(C)=C6CC)c(C)c5C(=O)C4)[C@@H](CCC(=O)N[C@H](CCCCNC(=O)CCCCCCC(=O)NCCCC[C@H](NC(=O)N[C@@H](CCC(=O)O)C(=O)O)C(=O)O)C(N)=O)[C@H]3C` [SC-Pyro] showed a pKi on PSMA [5] of 9.70.
In the case of `CC[C@H]1c2cc3[n-]c(c(CC(=O)OC)c4nc(cc5[n-]c(cc(n2)[C@@H]1C)c(C(C)=O)c5C)[C@@H](C)[C@@H]4CCC(=O)[O-])c(C(=O)NCCS(=O)(=O)[O-])c3C.[H+].[H+].[Pd+2]` [padeliporfin], in series [8] (28% with standard-of-care), the “patients with disease-free biopsy” value is on record as 49%. In series [8] (58% with standard-of-care), the “percentage of patients with progressive disease” value is listed as 28%.
